Data taken from patent US20220168384A1, “Anti-Bacterial Combination Therapy” (McMaster University, priority 2019, published 2022).
“Also recorded” adds a separate entry of the source. Read-outs that look alike come from different tables or passages of the source.

Key:
P. aeruginosa PA14 [1] = assay: Dose response and checkerboard assays against PA14; format: cell-based, Pseudomonas aeruginosa; details: for synergy with DSX: checkerboard of DSX with antibiotic; for one-eighth of MIC against PA14 (test concentration): Pseudomonas aeruginosa, concentration used in clinical isolate testing, read-out: ⅛^th the MIC of PA14
Method: Checkerboard assays were set-up using Nunc 96-well plates in an 8-well by 8-well format. Two columns were allocated for vehicle controls and two columns for sterility controls. Vehicle controls contained 2 μL DMSO plus 2 μL DFP solvent for checkerboards with TS and DFP or 4 μL DMSO for TS and DSX, in 146 μL of 10:90 medium or 10% serum inoculated with PA14 or PAO1-KP as described in Growth Curves. Sterile controls contained the same components in 10:90 medium or 10% serum, without cells. Serial dilutions of TS—with 17 μg/mL being the highest final concentration—were added along the y axis of the checkerboard (increasing concentration from bottom to top) whereas serial dilutions of DFP or DSX—with 512 μg/mL being the highest final concentration—were added along the x axis (increasing concentration from left to right). The final volume of each well was 150 μL and each checkerboard was repeated at least three times. Plates were incubated and the final OD600 determined as detailed above.
Culture conditions, growth assays, dose response and checkerboard assays using P. aeruginosa PA14 were performed as described in Example 1. Briefly, overnight cultures were grown in LB for 16 h, 37° C., 200 rpm then subcultured (1:500 dilution) into 10:90 for 6 h. Subcultures were standardized to OD600 of 0.10 and diluted 1:500 in fresh 10:90 before use. For the dose response assay, serial dilutions of compounds were added at 75 times the final concentration and diluted with 10:90 with cells to reach the desired final concentration. This was done in triplicate for technical replicates. Vehicle and sterile controls were included. The checkerboard assay was done similarly to the dose response assay but in an 8×8 format in a 96-well Nunc plate, with concentration of one drug increasing along the y-axis and the other along the x-axis. Sterility and vehicle controls were included with two columns allocated for each control. At least three biological replicates were repeated for the dose response and checkerboard assays.

[2] = Qualitative assay for antibiotic-Fe3+ coloured complexes; format: physicochemical; details: stock antibiotic + FeCl3 final 10 μM; room temperature 1 h
Method: […]. Binding of iron by a compound causes spectral shifts that can detected visually. Five μL of stock concentration antibiotic was added to 5 μL of FeCl3 to a final FeCl3 concentration of 10 μM and incubated at room temperature for one hour. Negative controls without iron are indicated by a negative sign and droplets with FeCl3 are indicated with a positive sign; vehicle controls with Milli-Q H2O and DMSO were included.
Compounds were arrayed in Nunc 96 microwell plates. Vehicle controls contained Milli-Q H2O with 1:75 dilution of each compound at a final concentration of […]. The experimental set-up contained the same components as the vehicle control, with the addition of […] FeCl3. The final volume in each well was 150 μL. The plate was incubated at room temperature for one hour and absorption spectra from 300 nm to 700 nm was read in 2 nm increments (Multiskan Go—Thermo Fisher Scientific). […]

[3] = UV-Vis absorption spectra assay for iron chelation; format: physicochemical; details: 300 μM compound and FeCl3; 300-700 nm; 1 h
Method: Equimolar concentrations of compound and FeCl3 were added in deionized H2O to a final concentration of 300 μM and a spectrum of wavelengths from 300 nm to 700 nm read after 1 h incubation at room temperature. The black dashed line is the spectrum of the compound in the absence of iron. The black solid line is the spectrum after the addition of iron. […] Chloramphenicol and ampicillin were used as negative controls. Each assay was performed at least 3 times and averaged values are shown.
Compounds were arrayed in Nunc 96 microwell plates. Vehicle controls contained Milli-Q H2O with 1:75 dilution of each compound at a final concentration of […]. The experimental set-up contained the same components as the vehicle control, with the addition of […] FeCl3. The final volume in each well was 150 μL. The plate was incubated at room temperature for one hour and absorption spectra from 300 nm to 700 nm was read in 2 nm increments (Multiskan Go—Thermo Fisher Scientific).

P. aeruginosa PA14 [4] = assay: Thiopeptide + DSX checkerboard and dose-response assays; format: cell-based, Pseudomonas aeruginosa; details: thiopeptide + DSX checkerboard, 10:90
Method: (§1) Culture conditions, checkerboard assays using P. aeruginosa PA14 and dose-response assays were performed as described in Example 1. In addition to TS, other thiopeptides tested were siomycin A (SM), thiocillin I (TC), micrococcin P1 (MC), nosiheptide (NH), berninamycin A (BER), and geninthiocin A (GEN). For dose response assays of the combinations conducted in 10:90, DSX concentration was constant at 64 μg/mL.

[5] = Chrome azurol S (CAS) plate assay; format: physicochemical; details: 10 μL of 2 mg/mL; room temperature 1 h
P. aeruginosa PA14 [6] = assay: Checkerboards pinned to LB agar (bactericidal activity); format: cell-based, Pseudomonas aeruginosa; details: overnight 37° C.
Method: Checkerboards were pinned to LB agar plates using a sterile 96 pin tool. Plates were incubated overnight at 37° C. Independent experiments were conducted 3 times and a representative plate is shown.

[7] = system: P. aeruginosa clinical isolates; assay: Clinical isolates testing, P. aeruginosa; format: cell-based, Pseudomonas aeruginosa; details: TS 8.3 and DSX 32 μg/mL
Method: Clinical isolates of P. aeruginosa and A. baumannii were inoculated from −80° C. stocks into 200 μL LB broth and grown with shaking at 200 rpm, 16 h, 37° C. in Nunc 96-well plates. The overnight cultures were subcultured (1:25 dilution) into 10:90 and grown with shaking at 200 rpm, 2 h, 37° C. Vehicle controls consisted of 4 μL of DMSO, 144 μL 10:90 and 2 μL of subculture. Sterile controls consisted of 4 μL of DMSO and 146 μL 10:90. […]. The final volume of each well was 150 μL and each checkerboard was repeated at least three times. Plates were incubated with shaking at 200 rpm, 16 h, 37° C. and OD600 was measured (Multiskan Go—Thermo Fisher Scientific). The results were plotted as percent of control (wells containing only DMSO) using Prism (GraphPad).
Clinical isolates were grown and tested as described in Example 1. Briefly, clinical isolates were inoculated from glycerol stocks stored at −80° C. into Nunc 96-well plates and grown overnight at 37° C., for 16 h with shaking in LB (200 rpm). Overnights were subcultured (1:25) into fresh 10:90 medium and grown for 2 h under the same growth conditions. Subcultures were diluted 1:75 in fresh 10:90. Compounds were diluted 1:75 to obtain the final concentration. DOXY and CLI were added at a final concentration of 1 μg/mL, CO was used at 2 μg/mL, TRO was used at 4 μg/mL, TS was used at 8.3 μg/mL, and DSX was used at 32 μg/mL. Vehicle and sterility controls were included. Plates were incubated overnight with the same conditions. The OD600 was read (Multiscan Go—Thermo Fisher Scientific), analyzed using Excel, and the data plotted using Prism (GraphPad).
as §1

[8] = checkerboard, IC50 isobolograms, PA14, 10:90

O=C(O)[C@H]1O[C@@H](Oc2cc3oc(-c4ccccc4)cc(=O)c3c(O)c2O)[C@H](O)[C@@H](O)[C@@H]1O [baicalin, Baicalin]
synergy with TS (P. aeruginosa PA14 [1]; [8]): None

CO/N=C(\C(=O)N[C@@H]1C(=O)N2C(C(=O)O)=C(CSc3nc(=O)c(=O)[nH]n3C)CS[C@H]12)c1csc(N)n1 [Ceftriaxone, ceftriaxone]
colour change upon addition of FeCl3 [2]: turned red | absorption spectrum after addition of FeCl3 [3]: did not change

O=C(N[C@H](CO)[C@H](O)c1ccc([N+](=O)[O-])cc1)C(Cl)Cl [Chloramphenicol]
synergy with DSX (P. aeruginosa PA14 [1]; PA14): No synergy

Cc1nc(C)c(C)nc1C [2,3,5,6-tetrametylpyrazine, 2,3,5,6-Tetramethylpyrazine]
synergy with TS (P. aeruginosa PA14 [1]; [8]): None

C=C(NC(=O)C(=C)NC(=O)c1ccc2c(n1)-c1coc(n1)C(=C)NC(=O)C(=C)NC(=O)c1nc(oc1C)C(=C)NC(=O)[C@H](C(C)(C)O)NC(=O)C(=C)NC(=O)c1nc(oc1C)/C(=C/C)NC(=O)[C@H]([C@@H](C)O)NC(=O)c1csc-2n1)C(N)=O [BER, berninamycin A]
synergy with DSX (P. aeruginosa PA14 [4]): did not synergize

Cc1cc(C2CCCCC2)n(O)c(=O)c1 [CO, Ciclopirox Olamine]
interaction with DSX (P. aeruginosa PA14 [1]; 2D checkerboard, PA14): indifferent | one-eighth of MIC against PA14 (test concentration) (P. aeruginosa PA14 [1]; PA14): 2 µg/mL | effect of 100 μM Fe^3+ on inhibitory activity (P. aeruginosa PA14 [1]; VAN + compound checkerboards, PA14): abrogated | synergy with TS (P. aeruginosa PA14 [1]; [8]): synergized | interaction with GN (P. aeruginosa PA14 [1]; checkerboard, PA14): antagonism | relative potency of synergy with TS (P. aeruginosa PA14 [1]; checkerboards, isobolograms and CI values, PA14): most potent synergy; also recorded: greater synergy | absorption spectrum after addition of FeCl3 [3]: showed shifts in their absorption spectra | decolourization of CAS agar (relative affinity for iron) [5]: greatest decolourization | mode of activity of compound alone (P. aeruginosa PA14 [6]): bacteriostatic | growth of C0379, triple combinations with TS+DSX at higher concentrations of the compound [7]: could inhibit its growth

C/C=C(\NC(=O)c1csc(-c2csc(-c3ccc4c(n3)-c3csc(n3)[C@H]([C@@H](C)O)NC(=O)c3csc(n3)[C@H](C(C)(C)O)NC(=O)c3csc(n3)/C(=C/C)NC(=O)[C@H]([C@@H](C)O)NC(=O)c3csc-4n3)n2)n1)C(=O)NC[C@@H](C)O [TC, thiocillin I]
synergy with DSX (P. aeruginosa PA14 [4]): synergize

COc1cc(Cc2cnc(N)nc2N)cc(OC)c1OC [Trimethoprim]
colour change upon addition of FeCl3 [2]: turned golden-yellow

COc1cc(/C=C/C(=O)CC(=O)/C=C/c2ccc(O)c(OC)c2)ccc1O [Curcumin]
synergy with TS (P. aeruginosa PA14 [1]; [8]): None

O=C(CCc1ccc(O)cc1)c1c(O)cc(O)cc1O [phloretin, Phloretin]
synergy with TS (P. aeruginosa PA14 [1]; [8]): None

CCn1cc(C(=O)O)c(=O)c2cnc(N3CCNCC3)nc21 [Pipemidic acid]
colour change upon addition of FeCl3 [2]: formed orange complexes | absorption spectrum after addition of FeCl3 [3]: shifted

C=C(NC(=O)c1csc(-c2nc3c(cc2O)-c2nc(cs2)C(=O)NC(C(C)O)C(=O)N/C(=C\C)c2nc(cs2)C(=O)NC2CC(O)C(=O)OCc4cccc5[nH]c(c(C)c45)C(=O)SCC(NC(=O)c4csc2n4)c2nc-3cs2)n1)C(N)=O (centres unmarked) [NH, nosiheptide]
synergy with DSX (P. aeruginosa PA14 [4]): synergize

COc1cc(/C=C/C(=O)O)ccc1O [ferulic acid, Ferulic Acid]
synergy with TS (P. aeruginosa PA14 [1]; [8]): None

O=P([O-])([O-])O[C@H]1[C@H](OP(=O)([O-])O)[C@H](OP(=O)([O-])[O-])[C@H](OP(=O)([O-])O)[C@@H](OP(=O)([O-])[O-])[C@@H]1OP(=O)([O-])O.[Na+].[Na+].[Na+].[Na+].[Na+].[Na+].[Na+].[Na+].[Na+] [sodium phytate, Sodium phytate]
synergy with TS (P. aeruginosa PA14 [1]): None

O=[N+]([O-])[O-].O=[N+]([O-])[O-].O=[N+]([O-])[O-].[Ga+3] [GN, Gallium Nitrate]
relative potency of synergy with TS (P. aeruginosa PA14 [1]): weakest | synergy with TS (P. aeruginosa PA14 [1]): synergized

O=C(O[C@@H]1Cc2c(O)cc(O)cc2O[C@@H]1c1cc(O)c(O)c(O)c1)c1cc(O)c(O)c(O)c1 [epigallocatechin gallate, Epigallocatechin Gallate]
synergy with TS (P. aeruginosa PA14 [1]; [8]): None

micrococcin P1 [MP]
synergy with DSX (P. aeruginosa PA14 [4]): synergize

C=C(NC(=O)C(=C)NC(=O)c1csc(C2=N[C@@H]3c4csc(n4)[C@H]4NC(=O)c5csc(n5)[C@H]([C@](C)(O)[C@@H](C)O)NC(=O)[C@H]5CSC(=N5)/C(=C/C)NC(=O)[C@H]([C@@H](C)O)NC(=O)c5csc(n5)[C@]3(CC2)NC(=O)[C@H](C)NC(=O)C(=C)NC(=O)C(=C)NC(=O)[C@H](C(C)C)N[C@@H]2C=Cc3c([C@H](C)O)cc(nc3[C@H]2O)C(=O)O[C@@H]4C)n1)C(N)=O [SM, siomycin A]
synergy with DSX (P. aeruginosa PA14 [4]): synergize

geninthiocin A
synergy with DSX (P. aeruginosa PA14 [4]): did not synergize

O=C(O)c1cn(C2CC2)c2cc(N3CCNCC3)c(F)cc2c1=O [CIP, ciprofloxacin]
synergy with DSX (P. aeruginosa PA14 [1]; PA14): No synergy | colour change upon addition of FeCl3 [2]: formed orange complexes

C[C@H]1c2cccc(O)c2C(=O)C2=C(O)[C@]3(O)C(=O)C(C(N)=O)=C(O)[C@@H](N(C)C)[C@@H]3[C@@H](O)[C@@H]21 [DOXY, Doxycycline]
one-eighth of MIC against PA14 (test concentration) (P. aeruginosa PA14 [1]; PA14): 1 µg/mL

NC[C@H]1O[C@H](O[C@H]2[C@H](O)[C@@H](O[C@H]3O[C@H](CO)[C@@H](O)[C@H](N)[C@H]3O)[C@H](N)C[C@@H]2N)[C@H](N)C[C@@H]1O [tobramycin]
synergy with DSX (P. aeruginosa PA14 [1]; PA14): No synergy
